Experiment [1] deals with T1, ERCC3 C342 (P19447) (Homo sapiens, UniProt P19447).
T1 sequence (P19447 1-782): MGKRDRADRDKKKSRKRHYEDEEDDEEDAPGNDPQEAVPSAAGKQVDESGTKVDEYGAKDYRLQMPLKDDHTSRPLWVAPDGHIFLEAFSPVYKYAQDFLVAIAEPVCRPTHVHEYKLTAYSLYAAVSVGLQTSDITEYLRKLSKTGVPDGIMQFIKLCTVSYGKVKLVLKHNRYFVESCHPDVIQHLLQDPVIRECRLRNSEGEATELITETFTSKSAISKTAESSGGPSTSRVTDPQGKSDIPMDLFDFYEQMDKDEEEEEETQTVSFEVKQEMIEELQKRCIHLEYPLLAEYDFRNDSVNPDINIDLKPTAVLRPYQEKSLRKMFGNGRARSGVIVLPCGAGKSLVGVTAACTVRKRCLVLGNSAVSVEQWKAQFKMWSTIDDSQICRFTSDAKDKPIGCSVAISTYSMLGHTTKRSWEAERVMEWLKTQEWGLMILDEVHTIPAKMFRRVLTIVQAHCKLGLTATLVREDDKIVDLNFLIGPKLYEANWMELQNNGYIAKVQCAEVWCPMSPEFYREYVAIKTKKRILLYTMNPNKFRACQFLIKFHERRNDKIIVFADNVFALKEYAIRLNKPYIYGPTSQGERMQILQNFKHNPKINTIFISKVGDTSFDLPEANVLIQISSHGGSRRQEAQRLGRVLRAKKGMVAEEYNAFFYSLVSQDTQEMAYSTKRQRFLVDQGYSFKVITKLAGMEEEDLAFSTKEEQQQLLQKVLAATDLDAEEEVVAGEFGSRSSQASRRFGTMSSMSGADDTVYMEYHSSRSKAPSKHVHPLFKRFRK
As to the kind of experiment: Competitive isoTOP-ABPP, cell lysates. It counts as binding. The note with it: 500 μm, in-vitro_ramos_231.

Experiment [2] has as its target T2, ACAT1 C413 (P24752) (Homo sapiens, UniProt P24752).
T2 sequence (P24752 34-427): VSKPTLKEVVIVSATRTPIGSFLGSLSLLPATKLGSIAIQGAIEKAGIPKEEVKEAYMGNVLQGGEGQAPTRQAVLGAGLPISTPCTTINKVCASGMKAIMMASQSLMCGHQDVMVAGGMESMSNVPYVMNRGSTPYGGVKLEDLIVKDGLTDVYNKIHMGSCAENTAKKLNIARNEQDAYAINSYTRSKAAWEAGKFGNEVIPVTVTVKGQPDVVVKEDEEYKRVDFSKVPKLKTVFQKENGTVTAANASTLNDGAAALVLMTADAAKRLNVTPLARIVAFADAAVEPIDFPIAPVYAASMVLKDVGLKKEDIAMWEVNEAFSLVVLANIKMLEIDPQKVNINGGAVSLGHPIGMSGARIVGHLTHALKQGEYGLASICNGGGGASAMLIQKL
As to the kind of experiment: Competitive isoTOP-ABPP, cell lysates. It is filed as binding. The conditions noted are these: 500 μm.

Experiment [3] addresses cysteines in MDA-MB-231 and Ramos cells (Homo sapiens, UniProt P12268). As to the kind of experiment: Competitive isoTOP-ABPP in situ (fragment-treated cells). The conditions noted are these: 200 μM, insitu, 231. It counts as cell-based.
Experiment [4] addresses T3, cysteines in MDA-MB-231 and Ramos cells (Homo sapiens, UniProt Q09161).
T3 sequence (Q09161 1-790): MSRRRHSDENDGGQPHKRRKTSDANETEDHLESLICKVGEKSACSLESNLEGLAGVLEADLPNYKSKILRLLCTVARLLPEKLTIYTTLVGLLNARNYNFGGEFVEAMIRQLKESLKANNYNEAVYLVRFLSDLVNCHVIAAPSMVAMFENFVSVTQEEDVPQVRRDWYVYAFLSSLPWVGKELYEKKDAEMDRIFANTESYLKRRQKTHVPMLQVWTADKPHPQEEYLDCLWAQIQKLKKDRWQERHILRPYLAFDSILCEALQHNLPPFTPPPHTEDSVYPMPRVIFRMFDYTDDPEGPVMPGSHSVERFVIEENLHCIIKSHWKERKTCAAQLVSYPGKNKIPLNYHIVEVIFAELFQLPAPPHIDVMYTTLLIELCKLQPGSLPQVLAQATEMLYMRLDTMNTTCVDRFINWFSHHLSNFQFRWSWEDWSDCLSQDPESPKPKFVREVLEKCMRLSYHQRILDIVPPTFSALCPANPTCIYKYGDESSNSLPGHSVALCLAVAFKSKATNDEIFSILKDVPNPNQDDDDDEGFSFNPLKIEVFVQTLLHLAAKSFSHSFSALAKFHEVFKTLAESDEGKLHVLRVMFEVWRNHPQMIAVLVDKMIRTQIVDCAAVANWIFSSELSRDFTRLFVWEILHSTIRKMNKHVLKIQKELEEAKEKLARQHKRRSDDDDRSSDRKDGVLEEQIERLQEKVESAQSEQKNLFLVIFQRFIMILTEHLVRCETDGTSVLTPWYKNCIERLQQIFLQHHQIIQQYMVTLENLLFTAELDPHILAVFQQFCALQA
The description is as above. The conditions noted are these: 200 μM, insitu, 231. It is filed as cell-based.

Experiment [5] concerns the target T4, cysteines in MDA-MB-231 and Ramos cells (Homo sapiens, UniProt P04183).
T4 sequence (P04183 1-234): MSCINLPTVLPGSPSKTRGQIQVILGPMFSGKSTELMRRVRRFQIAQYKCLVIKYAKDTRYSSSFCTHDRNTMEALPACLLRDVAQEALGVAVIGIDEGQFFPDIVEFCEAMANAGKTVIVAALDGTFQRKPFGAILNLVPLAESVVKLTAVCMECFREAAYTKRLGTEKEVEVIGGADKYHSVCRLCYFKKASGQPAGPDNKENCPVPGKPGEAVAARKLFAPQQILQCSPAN
Described as above. It counts as cell-based. The conditions noted are these: 200 μM, insitu, 231.

The target of experiment [6] is T5, cysteines in MDA-MB-231 and Ramos cells (Homo sapiens, UniProt Q9UMS0).
T5 sequence (Q9UMS0 10-254): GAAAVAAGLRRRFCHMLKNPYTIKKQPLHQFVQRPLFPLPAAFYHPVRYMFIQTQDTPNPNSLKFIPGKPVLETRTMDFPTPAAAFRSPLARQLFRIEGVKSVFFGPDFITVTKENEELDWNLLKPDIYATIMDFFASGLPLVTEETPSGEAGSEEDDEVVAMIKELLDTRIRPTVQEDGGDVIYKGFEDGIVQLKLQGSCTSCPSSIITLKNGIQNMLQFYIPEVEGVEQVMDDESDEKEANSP
The experiment is described as above. It is filed as cell-based. The conditions noted are these: 200 μM, insitu, 231.

As to `O=C(CCl)Nc1cccc2ncccc12` [compound 51], the “isoTOP-ABPP reactivity profile ratio, P19447_C342” value in experiment [1] is 1.4. Besides, the “isoTOP-ABPP reactivity profile ratio, P24752_C413” value in experiment [2] (in-vitro_ramos) and in experiment [2] (in-vitro_ramos_231) was 1.0 each time. Further, in experiment [3], the “isoTOP-ABPP ratio P12268_C140” value was found to be 1.0. Further, the “isoTOP-ABPP ratio Q09161_C44” value in experiment [4] is reported as 1.2. Besides, the “isoTOP-ABPP ratio P04183_C230” value in experiment [5] came out at 0.7. Further, the “isoTOP-ABPP ratio Q9UMS0_C213” value in experiment [6] was found to be 1.8.
